According to ChEMBL document CHEMBL1156842, “Discovery of 5-aryloxy-2,4-thiazolidinediones as potent GPR40 agonists” (Bioorg Med Chem Lett, 2010):
pEC50: −log10 of the molar value. Activity calls are given as the source filed them. The rule behind the calls is not given here.

Columns and labels:
[1] = biological target: T1, Free fatty acid receptor 1 (Homo sapiens, UniProt O14842); experiment: Agonist activity at human GPR40 by FLIPR assay in presence of 1% BSA; type: functional; conditions: for pEC50: read-out: EC50; for EC50: read-out: pEC50 (converted)
T1 sequence (O14842 whole entry): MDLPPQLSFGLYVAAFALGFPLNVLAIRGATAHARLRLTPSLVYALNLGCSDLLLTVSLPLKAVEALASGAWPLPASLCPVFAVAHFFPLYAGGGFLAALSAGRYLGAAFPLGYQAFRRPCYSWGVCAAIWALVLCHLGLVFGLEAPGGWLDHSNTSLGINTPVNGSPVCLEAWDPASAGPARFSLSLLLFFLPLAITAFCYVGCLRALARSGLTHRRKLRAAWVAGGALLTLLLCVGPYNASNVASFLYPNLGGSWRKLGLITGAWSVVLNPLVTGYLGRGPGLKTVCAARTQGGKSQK

[2] = biological target: T1, Free fatty acid receptor 1; experiment: Agonist activity at human GPR40 at 40 uM by FLIPR assay in presence of 1% BSA; type: functional
[3] = Oral bioavailability in mouse at 2 mg/kg; type: ADME, organism-based; conditions: in vivo
[4] = Clearance in mouse at 2 mg/kg; type: ADME, organism-based; parameters: dose 2 mg/kg; conditions: in vivo
[5] = Half life in mouse at 2 mg/kg; type: ADME, organism-based; parameters: dose 2 mg/kg; conditions: in vivo
[6] = Tmax in mouse at 2 mg/kg; type: ADME, organism-based; parameters: dose 2 mg/kg; conditions: in vivo
[7] = Cmax in mouse at 2 mg/kg; type: ADME, organism-based; parameters: dose 2 mg/kg; conditions: in vivo
Mus musculus [8] = experiment: Reduction in glucose excursion in po dosed lean mouse pretreated 1 hr before dextrose challenge by intraperitoneal glucose tolerance test; type: functional, organism-based
Mus musculus [9] = experiment: Reduction in glucose excursion in lean mouse assessed as inhibition of glucose AUC at 30 mg/kg, po pretreated 1 hr before dextrose challenge by intraperitoneal glucose tolerance test; type: functional; parameters: scale not given: the % may be the effect or the level left
[10] = Plasma concentration in lean mouse at 30 mg/kg, po pretreated 1 hr before dextrose challenge measured after 2 hrs; type: ADME, organism-based; parameters: dose 30 mg/kg, route oral
Mus musculus [11] = experiment: Reduction in glucose excursion in GPR40-/- lean mouse assessed as inhibition of glucose AUC at 30 mg/kg, po pretreated 1 hr before dextrose challenge by intraperitoneal glucose tolerance test; type: functional, organism-based; parameters: dose 30 mg/kg
Mus musculus [12] = experiment: Reduction in glucose excursion in lean mouse at 3 to 100 mg/kg, po pretreated 1 hr before dextrose challenge by intraperitoneal glucose tolerance test

pEC50 [1] | SMILES | also measured
5.92 | O=C1NC(=O)C(Cc2ccc(Oc3ccccc3Cl)cc2)S1 (stereo not drawn) | –
5.19 | O=C1CC(Cc2ccc(Oc3ccc(Cl)cc3Cl)cc2)C(=O)N1 (stereo not drawn) | –
5.73 | O=C1NC(=O)C(Cc2ccc(Oc3ccc(Cl)cn3)cc2)S1 (stereo not drawn) | –
5.64 | O=C1NC(=O)C(Cc2ccc(Oc3ncccc3C(F)(F)F)cc2)S1 (stereo not drawn) | –
7.02 | Cc1cc(C)cc(Oc2ccc(CC3SC(=O)NC3=O)cc2)c1 (stereo not drawn) | –
7.11 | O=C1NC(=O)C(Cc2ccc(Oc3ccc(C(F)(F)F)cc3Cl)cc2)S1 (stereo not drawn) | –
5.30 | O=C1NC(=O)C(Cc2ccc(Sc3ccccc3)cc2)S1 (stereo not drawn) | –
7.00 | O=C1NC(=O)C(Cc2ccc(Oc3ccc(Cl)cc3Cl)cc2)S1 (stereo not drawn) | –
5.65 | O=C1NC(=O)C(Cc2ccc(-c3ccccc3)cc2)S1 (stereo not drawn) | –
6.50 | O=C1NC(=O)C(Cc2ccc(Oc3cccc(Cl)c3)cc2)S1 (stereo not drawn) | –
7.20 | O=C1NC(=O)C(Cc2ccc(Oc3ncc(Cl)cc3Cl)cc2Cl)S1 (stereo not drawn) | –
7.06 | O=C1NC(=O)C(Cc2ccc(Oc3ccc(Cl)cc3Cl)cc2C(F)(F)F)S1 (stereo not drawn) | –
6.62 | Cc1ccc(C)c(Oc2ccc(CC3SC(=O)NC3=O)cc2)c1 (stereo not drawn) | –
6.68 | O=C1NC(=O)C(Cc2ccc(Oc3cc(Cl)cc(Cl)c3)cc2)S1 (stereo not drawn) | –
6.51 | O=C1NC(=O)C(Cc2ccc(Oc3ccccc3)cc2)S1 (stereo not drawn) | –
5.03 | O=C1NC(=O)C(Cc2ccc(Cc3ccccc3)cc2)S1 (stereo not drawn) | –
5.26 | Cc1cc(Oc2ncc(C(F)(F)F)cc2Cl)cc(C)c1CC1SC(=O)NC1=O (stereo not drawn) | –
6.92 | Cc1cc(Oc2ccc(CC3SC(=O)NC3=O)cc2)cc(C)c1C#N (stereo not drawn) | –
4.86 | COc1cc(Oc2ncc(C(F)(F)F)cc2Cl)ccc1CC1SC(=O)NC1=O (stereo not drawn) | –
5.79 | O=C1NC(=O)C(Cc2ccc(Oc3cccc(C(F)(F)F)n3)cc2)S1 (stereo not drawn) | –

pEC50 [1] | SMILES | also measured
5.85 | COc1cc(Oc2ccc(Cl)cc2Cl)ccc1CC1SC(=O)NC1=O (stereo not drawn) | –
6.48 | Cc1cccc(Oc2ccc(CC3SC(=O)NC3=O)cc2)c1C (stereo not drawn) | –
6.92 | Cc1ccc(Oc2ccc(CC3SC(=O)NC3=O)cc2)c(C)c1 (stereo not drawn) | –
– | O=C1COC(Cc2ccc(Oc3ccc(Cl)cc3Cl)cc2)C(=O)N1 (stereo not drawn) | Activity [2]: 23%
5.33 | O=C1NC(=O)C(Cc2cccc(Oc3ccccc3)c2)S1 (stereo not drawn) | –
7.74 | Cc1cc(Oc2ccc(C(F)(F)F)cc2Cl)ccc1CC1SC(=O)NC1=O (stereo not drawn) | –
6.25 | O=C1NC(=O)C(Cc2ccc(Oc3ccc(C(F)(F)F)cn3)cc2)S1 (stereo not drawn) | –
– | CN1C(=O)NC(=O)C1Cc1ccc(Oc2ccc(Cl)cc2Cl)cc1 (stereo not drawn) | Activity [2]: 2%
5.58 | Cc1cccc(Oc2ccc(CC3SC(=O)NC3=O)cc2)n1 (stereo not drawn) | –
6.14 | Cc1ccc(Oc2ccc(CC3SC(=O)NC3=O)cc2)cc1C (stereo not drawn) | –
6.62 | O=C1NC(=O)C(Cc2ccc(Oc3ccc(Cl)cc3)cc2)S1 (stereo not drawn) | –
6.16 | Cc1cc(Oc2ccc(CC3SC(=O)NC3=O)cc2)nc(C(F)(F)F)c1 (stereo not drawn) | –
6.69 | Cc1cccc(Oc2ccc(CC3SC(=O)NC3=O)cc2)c1 (stereo not drawn) | –
5.21 | O=C1NC(=O)C(Cc2ccc(OCc3ccccc3)cc2)S1 (stereo not drawn) | –
5.37 | Cc1ccnc(Oc2ccc(CC3SC(=O)NC3=O)cc2)c1 (stereo not drawn) | –
– | Cc1nc(-c2ccc(C(F)(F)F)cc2)sc1CNc1ccc(C2CC2C(=O)O)cc1 (stereo not drawn) | EC50 [1]: 10 nM
6.26 | Cc1ccc(Oc2ccc(CC3SC(=O)NC3=O)cc2)cc1 (stereo not drawn) | –
7.59 | O=C1NC(=O)C(Cc2ccc(Oc3ncc(C(F)(F)F)cc3Cl)cc2Cl)S1 (stereo not drawn) | –
6.91 | Cc1ccccc1Oc1ccc(CC2SC(=O)NC2=O)cc1 (stereo not drawn) | –
– | O=C1CCC(Cc2ccc(Oc3ccc(Cl)cc3Cl)cc2)C(=O)N1 (stereo not drawn) | Activity [2]: 6%

pEC50 [1] | SMILES | also measured
5.96 | Cc1cccnc1Oc1ccc(CC2SC(=O)NC2=O)cc1 (stereo not drawn) | –
6.87 | O=C1NC(=O)C(Cc2ccc(Oc3cccc4ccccc34)cc2)S1 (stereo not drawn) | –
6.32 | O=C1NC(=O)C(Cc2ccc(Oc3ccc(F)cc3)cc2)S1 (stereo not drawn) | –
4.95 | O=C1NC(=O)C(Cc2ccccc2Oc2ccccc2)S1 (stereo not drawn) | –
5.40 | O=C1NC(=O)C(Cc2ccc(Oc3ccc(Cl)cc3Cl)cc2)O1 (stereo not drawn) | –
4.63 | O=C1NC(=O)C(Cc2ccc(Oc3ncc(C(F)(F)F)cc3Cl)c3ccccc23)S1 (stereo not drawn) | –
7.05 | O=C1NC(=O)C(Cc2ccc(Oc3ncc(Cl)cc3Cl)cc2)S1 (stereo not drawn) | –
5.97 | O=C1NC(=O)C(Cc2ccc(CCc3ccccc3)cc2)S1 (stereo not drawn) | –
7.16 | O=C1NC(=O)C(Cc2ccc(Oc3ncc(C(F)(F)F)cc3Cl)cc2)S1 (stereo not drawn) | –
6.63 | O=C1NC(=O)C(Cc2ccc(Oc3cc(C(F)(F)F)ccn3)cc2)S1 (stereo not drawn) | –
6.66 | Cc1cc(C(F)(F)F)cc(Oc2ccc(CC3SC(=O)NC3=O)cc2)n1 (stereo not drawn) | –
– | O=C1NC(=O)C(Cc2ccc(Oc3ccc(C(F)(F)F)cc3Cl)c3ccccc23)S1 (stereo not drawn) | Activity [2]: 46%
5.68 | O=C1NC(=O)C(Cc2ccc(/C=C/c3ccccc3)cc2)S1 (stereo not drawn) | –
5.35 | Cc1ccc(Oc2ccc(CC3SC(=O)NC3=O)cc2)nc1 (stereo not drawn) | –
– | O=C(O)CCc1ccc(NCc2cccc(Oc3ccccc3)c2)cc1 [GW9508] | EC50 [1]: 100 nM
8.00 | Cc1cc(Oc2ncc(C(F)(F)F)cc2Cl)ccc1CC1SC(=O)NC1=O (stereo not drawn) | bioavailability [3]: 100%; clearance [4]: 1.9 mL/min/kg; half-life [5]: 5.1 h; Tmax [6]: 3 h; Cmax [7]: 1.4 µM; Activity (Mus musculus [8]): Dose-dependent effect; Activity (Mus musculus [9]): 73%; concentration at 2 h [10]: 37 µM; Activity (Mus musculus [11]): inactive; Activity (Mus musculus [12]): Active
5.28 | O=C1NC(=O)C(Cc2ccc(C(=O)c3ccccc3)cc2)S1 (stereo not drawn) | –
6.84 | O=C1NC(=O)C(Cc2ccc(Oc3cc4ccccc4cn3)cc2)S1 (stereo not drawn) | –
